Results: patent publication US10364263B2, “Cyclic phosphates and cyclic phosphoramidates for the treatment of neurologic disorders” (Retrophin, Inc., priority 2015, dated 2019)

Test system: PANK2 silenced human neuroblastoma IMR32 cells (PANK2−/−)
Test: Coenzyme A assay in PANK2 silenced cells (LC-MS quantification of free CoA)
Assay type: cell-based
Conditions: compound added twice (24 h + 24 h), relative to 0.1% DMSO controls
Protocol: A human neuroblastoma IMR32 cell line (ATCC) with stably PANK2 silencing was obtained by lentiviral-delivered small hairpin RNA and cultured in MEM (Invitrogen) supplemented with 10% fetal bovine serum, 2 mM glutamine, 1% penicillin-streptomycin, 1 mM sodium pyruvate, 1 mM non essential amino acids and 1.5 g/l sodium bicarbonate.
For lentiviral shRNA expression, Human Emryonic Kidney HEK-293T cells (ATCC) were transfected with the appropriate pGFP-Lenti-shRNA constructs and packaging plasmids according to manufacturer's protocol (Origene Technologies, Inc.). Four different gene-specific shRNA expression vectors designed against multiple splice variants of PANK2 (Gene ID 80025) were used for transfection. A non-silencing shRNA construct (scrambled shRNA) and an empty vector expressing GFP alone were used as negative controls. The GFP tag subcloned into the lentiviral vectors was used to monitor the transfection efficiency.
IMR32 cells were plated on 150 cm dishes 48 h before transduction with lentiviral particles.
Three days after transduction medium was removed and replaced with fresh medium containing […] puromycin. Medium was replaced every 48 h. Levels of PANK2 expression on selected clones was assessed by Western Blot analysis.
To quantify CoA, PANK2^−/− IMR32 cells were plated on 12-well culture plates (Corning) at a density of 0.2×10^6 cells per well. After 72 h, compounds were freshly dissolved in DMSO and added to the culture medium to yield a final solvent concentration of 0.1% (v/v). Controls with medium containing 0.1% DMSO without test compounds were also included in each plate. Compound treated cells were incubated for 24 h at 37° C. Treatment was repeated after 24 h with newly dissolved compound and cells were further incubated at 37° C. for additional 24 h. Before LC-MS analysis of CoA levels, cells were harvested, counted, and collected in a 15 ml falcon tube and centrifuged at 200×g for 5 min at 4° C. Supernatant was removed and cell pellet was washed in 10 ml of ice-cold PBS. To further confirm that the numbers of cells in each sample were equivalent, an equal fraction of pellet was collected from each sample and subjected to protein determination analysis. After centrifugation and supernatant removal, the cell pellet was rapidly frozen in Liquid Nitrogen and stored at −80° C. until analysis.
Intracellular CoA levels were calculated considering an intracellular volume of 1 million cells=2 μl.
The 1×10^6 cellular pellet was extracted with 120 μl of aqueous 20% TFA. This solution was stirred for 2 min, sonicated in ultrasonic bath for 2 min, then stirred again for 1 min, and centrifuged for 15 min at 14000 g and at 4° C.
100 μL samples of supernatant were dried under N2 at 20° C. in the dark.
Samples were re-dissolved in 100 μl of 10 mM NH4^+ AcO^− buffer pH 5.1+IS (Dextrorphan 50 ng/ml), stirred for 2 min, sonicated in ultrasonic bath for 1 min, then stirred again for 1 min, and injected into LC-MS.
LC-MS/MS was performed using an Agilent HPLC (1100 Series, USA). The LC system was interfaced with an API-4000 Q-Trap triple quadrupole mass spectrometer (AB Sciex, Toronto, Canada) equipped with a TurbolonSpray ionization source operating in positive ion mode. Analyst™ software version 1.6 (AB Sciex, Toronto, Canada) was used for data acquisition and processing. CoA was separated using a Luna C18 column (2.0×50 mm; 5 μm particle size), column at 25° C. and flow rate of 0.2 ml/min. Injection volume was 15 μl. The mobile phases consisted of water containing 10 mM ammonium acetate pH 7 (mobile phase A) and MeCN-2-propanol 9:1 (mobile phase B). Elution was performed using a gradient starting at 2% B, holding at 2% B until 0.1 min, increasing to 98% B at 3.2 min, holding at 98% B until 4.5 min, returning to 2% B at 4.6 min and holding at 2% B until 7.5 min. Precursor ions and MRM transitions used were: CoA m/z 768.1→261.6 and 768.1→136.1. […]

Structure (SMILES)	PANK2−/− CoA (Fold Increase): fold increase in Coenzyme A (CoA) levels relative to controls
COC(=O)CCNC(=O)[C@@H]1OP(=O)(Oc2ccc(C(F)(F)F)nc2)OCC1(C)C (stereo partly drawn) [2-122, methyl 3-((4R)-5,5-dimethyl-2-oxido-2-((6-(trifluoromethyl)pyridin-3-yl)oxy)-1,3,2-dioxaphosphinane-4-carboxamido)propanoate]	1.21 Fold Increase
COC(=O)CCNC(=O)[C@@H]1O[P@@](=O)(OCn2ccnc2)OCC1(C)C [2-132, methyl 3-((2S,4R)-2-((1H-imidazol-1-yl)methoxy)-5,5-dimethyl-2-oxido-1,3,2-dioxaphosphinane-4-carboxamido)propanoate]	0.93 Fold Increase
COC(=O)CCNC(=O)[C@@H]1OP(=O)(Oc2ccc([N+](=O)[O-])cc2)OCC1(C)C (stereo partly drawn) [Compound No. 2-134, Methyl 3-((4R)-5,5-dimethyl-2-(4-nitrophenoxy)-2-oxido-1,3,2-dioxaphosphinane-4-carboxamido)propanoate]	5.37 Fold Increase
COC(=O)CCNC(=O)[C@@H]1O[P@](=O)(OCOC(=O)c2scnc2C)OCC1(C)C (single isomer, unassigned) [2-150]	43.4 Fold Increase
COC(=O)CCNC(=O)[C@@H]1OP(=O)(OCOC(=O)c2ccno2)OCC1(C)C (stereo partly drawn) [Compound No. 2-141, (((4R)-4-((3-methoxy-3-oxopropyl)carbamoyl)-5,5-dimethyl-2-oxido-1,3,2-dioxaphosphinan-2-yl)oxy)methyl isoxazole-5-carboxylate]	7.62 Fold Increase
COC(=O)CCNC(=O)[C@@H]1O[P@](=O)(Oc2ccc(F)cc2)OCC1(C)C [2-179, methyl 3-((2R,4R)-2-(4-fluorophenoxy)-5,5-dimethyl-2-oxido-1,3,2-dioxaphosphinane-4-carboxamido)propanoate]	87.22 Fold Increase
COC(=O)CCNC(=O)[C@@H]1O[P@](=O)(NCC2CCCO2)OCC1(C)C (stereo partly drawn) [compound 119, methyl 3-((2S,4R)-5,5-dimethyl-2-oxido-2-(((tetrahydrofuran-2-yl)methyl)amino)-1,3,2-dioxaphosphinane-4-carboxamido)propanoate]	1.44 Fold Increase
COC(=O)CCNC(=O)[C@@H]1O[P@@](=O)(OCOC(=O)N[C@@H](CSC(=O)C(C)(C)C)C(=O)OCC(=O)c2ccccc2)OCC1(C)C [2-199, 2-oxo-2-phenylethyl N-(((((2S,4R)-4-((3-methoxy-3-oxopropyl)carbamoyl)-5,5-dimethyl-2-oxido-1,3,2-dioxaphosphinan-2-yl)oxy)methoxy)carbonyl)-S-pivaloyl-L-cysteinate]	1.98 Fold Increase
COC(=O)CCNC(=O)[C@@H]1O[P@](=O)(OCC(F)(F)F)OCC1(C)C [2-123, methyl 3-((2S,4R)-5,5-dimethyl-2-oxido-2-(2,2,2-trifluoroethoxy)-1,3,2-dioxaphosphinane-4-carboxamido)propanoate]	1.46 Fold Increase
CCOC(=O)[C@H](Cc1ccccc1)NC(=O)OCOP1(=O)OCC(C)(C)[C@H](C(=O)NCCC(=O)OC)O1 (stereo partly drawn) [2-137, ethyl (((((4R)-4-((3-methoxy-3-oxopropyl)carbamoyl)-5,5-dimethyl-2-oxido-1,3,2-dioxaphosphinan-2-yl)oxy)methoxy)carbonyl)-L-phenylalaninate]	1.1 Fold Increase
COC(=O)CCNC(=O)[C@@H]1O[P@](=O)(N2CCOCC2)OCC1(C)C [compound 135, methyl 3-((2S,4R)-5,5-dimethyl-2-morpholino-2-oxido-1,3,2-dioxaphosphinane-4-carboxamido)propanoate]	1.3 Fold Increase
